According to ChEMBL document CHEMBL3885881, “DrugMatrix”:

Species: Rattus norvegicus
Experiment: DrugMatrix - Regimen: Daily Repeat
Assay type: toxicity, organism-based, Sprague-Dawley
Parameters: regimen Daily Repeat, gender Male, age 6-8 weeks
Settings: in vivo, po, 0 mg/kg, route oral GAVAGE, dose level Control, vehicle .5 % CMC; for ABSOLUTE BASOPHIL / ABSOLUTE EOSINOPHIL / ABSOLUTE LYMPHOCYTE / ABSOLUTE MONOCYTE / ABSOLUTE SEGMENTED NEUTROPHIL / BASOPHIL / EOSINOPHIL / ERYTHROCYTE COUNT / HEMATOCRIT / HEMOGLOBIN / LEUKOCYTE COUNT / LYMPHOCYTE / MEAN CORPUSCULAR HEMOGLOBIN / MEAN CORPUSCULAR HEMOGLOBIN CONCENTRATION / MEAN CORPUSCULAR VOLUME / MONOCYTE / NEUTROPHIL / NUCLEATED RED BLOOD CELLS / PLATELET COUNT: tissue Blood; for ALANINE AMINOTRANSFERASE / ALBUMIN / ALKALINE PHOSPHATASE / ASPARTATE AMINOTRANSFERASE / BLOOD UREA NITROGEN / CARBON DIOXIDE / CHLORIDE / CHOLESTEROL / CREATININE / GLUCOSE / LACTATE DEHYDROGENASE / LIPASE / PHOSPHORUS / POTASSIUM / SODIUM / TOTAL BILIRUBIN / TOTAL PROTEIN / URIC ACID: tissue Plasma

ClC(Br)Br [DIBROMOCHLOROMETHANE]
ABSOLUTE BASOPHIL (120 h, time 5 day): 0 CELLS/uL | ABSOLUTE EOSINOPHIL (120 h, time 5 day): 18.5 CELLS/uL | ABSOLUTE LYMPHOCYTE (120 h, time 5 day): 8146.83 CELLS/uL | ABSOLUTE MONOCYTE (120 h, time 5 day): 204.83 CELLS/uL | ABSOLUTE SEGMENTED NEUTROPHIL (120 h, time 5 day): 1329.83 CELLS/uL | BASOPHIL (120 h, time 5 day): 0% | EOSINOPHIL (120 h, time 5 day): 0.17% | ERYTHROCYTE COUNT (120 h, time 5 day): 5.37 x10E6/uL | HEMATOCRIT (120 h, time 5 day): 33.17% | HEMOGLOBIN (120 h, time 5 day): 12.07 G/DL | LEUKOCYTE COUNT (120 h, time 5 day): 9.7 x10E3/uL | LYMPHOCYTE (120 h, time 5 day): 85.33% | MEAN CORPUSCULAR HEMOGLOBIN (120 h, time 5 day): 22.52 pg | MEAN CORPUSCULAR HEMOGLOBIN CONCENTRATION (120 h, time 5 day): 36.42 G/DL | MEAN CORPUSCULAR VOLUME (120 h, time 5 day): 61.78 fL | MONOCYTE (120 h, time 5 day): 1.83% | NEUTROPHIL (120 h, time 5 day): 12.67% | NUCLEATED RED BLOOD CELLS (120 h, time 5 day): 0 /100WBC | PLATELET COUNT (120 h, time 5 day): 907.5 x10E3/uL | ALANINE AMINOTRANSFERASE (120 h, time 5 day): 58.5 u/L | ALBUMIN (120 h, time 5 day): 4.4 G/DL | ALKALINE PHOSPHATASE (120 h, time 5 day): 377.67 u/L | ASPARTATE AMINOTRANSFERASE (120 h, time 5 day): 140.33 u/L | BLOOD UREA NITROGEN (120 h, time 5 day): 15.33 mg/dL | CARBON DIOXIDE (120 h, time 5 day): 32.17 mmol/L | CHLORIDE (120 h, time 5 day): 100 MEQ/L | CHOLESTEROL (120 h, time 5 day): 71.83 mg/dL | CREATININE (120 h, time 5 day): 0.18 mg/dL | GLUCOSE (120 h, time 5 day): 185 mg/dL | LACTATE DEHYDROGENASE (120 h, time 5 day): 241.5 u/L | LIPASE (120 h, time 5 day): 9.5 u/L | PHOSPHORUS (120 h, time 5 day): 13.02 mg/dL | POTASSIUM (120 h, time 5 day): 6.45 MEQ/L | SODIUM (120 h, time 5 day): 143.45 MEQ/L | TOTAL BILIRUBIN (120 h, time 5 day): 0.22 mg/dL | TOTAL PROTEIN (120 h, time 5 day): 6.1 G/DL | URIC ACID (120 h, time 5 day): 1 mg/dL | ABSOLUTE BASOPHIL ([…], time 14 day): 0 CELLS/uL | ABSOLUTE EOSINOPHIL ([…], time 14 day): 117.17 CELLS/uL | ABSOLUTE LYMPHOCYTE ([…], time 14 day): 13562 CELLS/uL | ABSOLUTE MONOCYTE ([…], time 14 day): 534.83 CELLS/uL | ABSOLUTE SEGMENTED NEUTROPHIL ([…], time 14 day): 2486 CELLS/uL | BASOPHIL ([…], time 14 day): 0% | EOSINOPHIL ([…], time 14 day): 0.83% | ERYTHROCYTE COUNT ([…], time 14 day): 6.14 x10E6/uL | HEMATOCRIT ([…], time 14 day): 36.87% | HEMOGLOBIN ([…], time 14 day): 13.87 G/DL | LEUKOCYTE COUNT ([…], time 14 day): 16.7 x10E3/uL | LYMPHOCYTE ([…], time 14 day): 81% | MEAN CORPUSCULAR HEMOGLOBIN ([…], time 14 day): 22.63 pg | MEAN CORPUSCULAR HEMOGLOBIN CONCENTRATION ([…], time 14 day): 37.62 G/DL | MEAN CORPUSCULAR VOLUME ([…], time 14 day): 60.15 fL | MONOCYTE ([…], time 14 day): 3.17% | NEUTROPHIL ([…], time 14 day): 15% | NUCLEATED RED BLOOD CELLS ([…], time 14 day): 0 /100WBC | PLATELET COUNT ([…], time 14 day): 974.83 x10E3/uL | ALANINE AMINOTRANSFERASE ([…], time 14 day): 52.33 u/L | ALBUMIN ([…], time 14 day): 4.48 G/DL | ALKALINE PHOSPHATASE ([…], time 14 day): 346.17 u/L | ASPARTATE AMINOTRANSFERASE ([…], time 14 day): 81 u/L | BLOOD UREA NITROGEN ([…], time 14 day): 15.67 mg/dL | CARBON DIOXIDE ([…], time 14 day): 34.33 mmol/L | CHLORIDE ([…], time 14 day): 100.17 MEQ/L | CHOLESTEROL ([…], time 14 day): 70.83 mg/dL | CREATININE ([…], time 14 day): 0.22 mg/dL | GLUCOSE ([…], time 14 day): 141.17 mg/dL | LACTATE DEHYDROGENASE ([…], time 14 day): 121.33 u/L | LIPASE ([…], time 14 day): 8.33 u/L | PHOSPHORUS ([…], time 14 day): 9.97 mg/dL | POTASSIUM ([…], time 14 day): 6.4 MEQ/L | SODIUM ([…], time 14 day): 143.72 MEQ/L | TOTAL BILIRUBIN ([…], time 14 day): 0.22 mg/dL | TOTAL PROTEIN ([…], time 14 day): 6.45 G/DL | URIC ACID ([…], time 14 day): 1.25 mg/dL
